Values joined by “and” are separate entries in the source; they are usually repeats but may differ in a detail not shown here. Equal entries are not always repeated. Toxic doses and inconclusive results are not listed. How the source made its calls: active means survival T/C of 150% or more; inactive means T/C below 125% in these data.
System: P388 leukemia ip, CD2F1 mice, survival T/C
Assay: NCI In Vivo Anticancer Drug Screen. Data for tumor model P388 Leukemia (intraperitoneal) in CD2F1 (CDF1) mice
Settings: endpoint: median survival time, higher = longer survival
Outline: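 Mice carrying the transplanted tumor received test compound or vehicle. Survival was recorded in each group, and the value is the treated-group measurement divided by that of the vehicle-treated control group.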

[1] = dose: 50.0 mg/kg/injection, schedule: Q01DX005 (ip), vehicle: saline with Tween-80
[2] = dose: 100.0 mg/kg/injection, schedule: Q01DX005 (ip), vehicle: saline with Tween-80
[3] = dose: 50.0 mg/kg/injection, schedule: Q01DX005 (ip), vehicle: Klucel (hydroxypropylcellulose) (HPC)
[4] = dose: 100.0 mg/kg/injection, schedule: Q01DX005 (ip), vehicle: Klucel (hydroxypropylcellulose) (HPC)
[5] = dose: 200.0 mg/kg/injection, schedule: Q01DX005 (ip), vehicle: Klucel (hydroxypropylcellulose) (HPC)
[6] = dose: 50.0 mg/kg/injection, schedule: Q01DX009 (ip), vehicle: saline with Tween-80
[7] = dose: 100.0 mg/kg/injection, schedule: Q01DX009 (ip), vehicle: saline with Tween-80
[8] = dose: 6.25 mg/kg/injection, schedule: Q01DX009 (ip), vehicle: Klucel (hydroxypropylcellulose) (HPC)
[9] = dose: 12.5 mg/kg/injection, schedule: Q01DX009 (ip), vehicle: Klucel (hydroxypropylcellulose) (HPC)
[10] = dose: 50.0 mg/kg/injection, schedule: Q01DX009 (ip), vehicle: saline
[11] = dose: 100.0 mg/kg/injection, schedule: Q01DX009 (ip), vehicle: saline
[12] = dose: 200.0 mg/kg/injection, schedule: Q01DX009 (ip), vehicle: saline
[13] = dose: 12.5 mg/kg/injection, schedule: Q01DX005 (ip), vehicle: Klucel (hydroxypropylcellulose) (HPC)
[14] = dose: 25.0 mg/kg/injection, schedule: Q01DX005 (ip), vehicle: Klucel (hydroxypropylcellulose) (HPC)
[15] = dose: 60.0 mg/kg/injection, schedule: Q01DX005 (ip), vehicle: saline
[16] = dose: 120.0 mg/kg/injection, schedule: Q01DX005 (ip), vehicle: saline

Measured: T/C

O=c1cc2c(n[nH]1)-c1ccccc1C2
inactive: [1] 100 % of control | [2] 109 % of control | dose: 200.0 mg/kg/injection, schedule: Q01DX005 (ip), vehicle: saline with Tween-80 96 % of control

CC(C)N1CSC(=S)NCCNC(=S)SC1
inactive: [3] 101 % of control | [4] 110 % of control | [5] 110 % of control

C[C@]12CC[C@H](O)C[C@@H]1CC[C@@H]1[C@@H]2C(=O)C[C@@]2(C)[C@H]1CC[C@]2(O)C(=O)CBr
inactive: dose: 264.0 mg/kg/injection, schedule: Q04DX003 (ip), vehicle: saline with Tween-80 109 % of control | dose: 400.0 mg/kg/injection, schedule: Q04DX003 (ip), vehicle: saline with Tween-80 100 % of control | dose: 600.0 mg/kg/injection, schedule: Q04DX003 (ip), vehicle: saline with Tween-80 95 % of control

CC(=O)Nc1cc2cc(NC(=O)C(Cl)(Cl)Cl)ccc2oc1=O
inactive: dose: 60.0 mg/kg/injection, schedule: Q01DX005 (ip), vehicle: Klucel (hydroxypropylcellulose) (HPC) 98 % of control | dose: 120.0 mg/kg/injection, schedule: Q01DX005 (ip), vehicle: Klucel (hydroxypropylcellulose) (HPC) 100 % of control | dose: 240.0 mg/kg/injection, schedule: Q01DX005 (ip), vehicle: Klucel (hydroxypropylcellulose) (HPC) 100 % of control

O=[N+]([O-])C1=NOCC1
inactive: dose: 50.0 mg/kg/injection, schedule: Q01DX005 (ip), vehicle: suspension in saline 95 % of control | dose: 100.0 mg/kg/injection, schedule: Q01DX005 (ip), vehicle: suspension in saline 95 % of control

CCCCC(CC)CS(=O)(=O)OCCCCOS(=O)(=O)CC(CC)CCCC (stereo unspecified)
inactive: [3] 101 % of control | [4] 105 % of control | [5] 108 % of control

CC(C)=CCC1=C(C)C(=O)C(C)=C(C)C1=O
inactive: dose: 12.5 mg/kg/injection, schedule: Q01DX009 (ip), vehicle: distilled water + Tween-80 + alcohol 100 % of control | dose: 25.0 mg/kg/injection, schedule: Q01DX009 (ip), vehicle: distilled water + Tween-80 + alcohol 98 % of control | dose: 50.0 mg/kg/injection, schedule: Q01DX009 (ip), vehicle: distilled water + Tween-80 + alcohol 100 % of control | dose: 100.0 mg/kg/injection, schedule: Q01DX009 (ip), vehicle: distilled water + Tween-80 + alcohol 98 % of control | dose: 200.0 mg/kg/injection, schedule: Q01DX009 (ip), vehicle: distilled water + Tween-80 + alcohol 86 % of control

O=C(Nc1ccccc1C(=O)O)c1cc([N+](=O)[O-])cc([N+](=O)[O-])c1
inactive: dose: 25.0 mg/kg/injection, schedule: Q01DX009 (ip), vehicle: saline with Tween-80 114 % of control | [6] 113 % of control | [7] 109 % of control

N=c1ncn(C2OC(CO)C(O)C2O)c2nc[nH]c12 (stereo unspecified)
inactive: [8] 113 % of control | [9] 108 % of control

CC(=O)Nc1ccc(-c2ccc(NC(C)=O)cc2)cc1
inactive: [10] 105 % of control | [11] 92 % of control | [12] 92 % of control

O=C(O)CSc1nnc(C2CCC(=O)N2Cc2ccccc2)o1 (stereo unspecified)
inactive: dose: 100.0 mg/kg/injection, schedule: Q01DX001 (ip), vehicle: saline with Tween-80 99 % of control | dose: 200.0 mg/kg/injection, schedule: Q01DX001 (ip), vehicle: saline with Tween-80 101 % of control | dose: 400.0 mg/kg/injection, schedule: Q01DX001 (ip), vehicle: saline with Tween-80 95 % of control

C[CH2][Sn]([Cl])([CH2]C)[O][Sn]([CH2]C)([CH2]C)[O][Sn]([Cl])([CH2]C)[CH2]C
inactive: dose: 6.25 mg/kg/injection, schedule: Q01DX005 (ip), vehicle: Klucel (hydroxypropylcellulose) (HPC) 118 % of control and 121 % of control | [13] 113 % of control | [14] 111 % of control

CP1(=O)CCC2=C1CCc1cc(O)ccc12 (stereo unspecified)
inactive: [8] 100 % of control | [9] 100 % of control | dose: 25.0 mg/kg/injection, schedule: Q01DX009 (ip), vehicle: Klucel (hydroxypropylcellulose) (HPC) 103 % of control and 106 % of control

COc1c2c(c(OC)c3c1C(=O)c1ccccc1C3O)CC=CC2 (stereo unspecified)
inactive: dose: 25.0 mg/kg/injection, schedule: Q01DX009 (ip), vehicle: other 94 % of control | dose: 50.0 mg/kg/injection, schedule: Q01DX009 (ip), vehicle: other 91 % of control | dose: 100.0 mg/kg/injection, schedule: Q01DX009 (ip), vehicle: other 91 % of control | dose: 200.0 mg/kg/injection, schedule: Q01DX009 (ip), vehicle: other 95 % of control | dose: 400.0 mg/kg/injection, schedule: Q01DX009 (ip), vehicle: other 100 % of control

N#CSCCSC#N
inactive: dose: 6.25 mg/kg/injection, schedule: Q04DX002 (ip), vehicle: Klucel (hydroxypropylcellulose) (HPC) 100 % of control | dose: 12.5 mg/kg/injection, schedule: Q04DX002 (ip), vehicle: Klucel (hydroxypropylcellulose) (HPC) 97 % of control

CCC/C=C(\CC)COC(=O)Nc1ccccc1
inactive: [1] 86 % of control | [2] 100 % of control

Brc1ccc(Nc2c3ccccc3nc3ccccc23)cc1
inactive: dose: 50.0 mg/kg/injection, schedule: Q04DX003 (ip), vehicle: saline with Tween-80 95 % of control | dose: 100.0 mg/kg/injection, schedule: Q04DX003 (ip), vehicle: saline with Tween-80 100 % of control

CC(=O)Nc1c(I)c(C(=O)NC2C(O)OC(CO)C(O)C2O)c(I)c(N(C)C(C)=O)c1I (stereo unspecified)
inactive: [15] 100 % of control | [16] 100 % of control | dose: 240.0 mg/kg/injection, schedule: Q01DX005 (ip), vehicle: saline 107 % of control

CC(C)SC(=S)Nc1cccc(F)c1
inactive: dose: 50.0 mg/kg/injection, schedule: Q01DX009 (ip), vehicle: suspension in saline 107 % of control | dose: 100.0 mg/kg/injection, schedule: Q01DX009 (ip), vehicle: suspension in saline 109 % of control | dose: 200.0 mg/kg/injection, schedule: Q01DX009 (ip), vehicle: suspension in saline 107 % of control

CCOC(=O)c1ccnc2ccc(OCCN(CC)CC)cc12
inactive: dose: 50.0 mg/kg/injection, schedule: Q01DX005 (ip), vehicle: saline 96 % of control | dose: 100.0 mg/kg/injection, schedule: Q01DX005 (ip), vehicle: saline 100 % of control | dose: 200.0 mg/kg/injection, schedule: Q01DX005 (ip), vehicle: saline 101 % of control

CC(C)Nc1ncnc2[nH]ncc12
inactive: dose: 16.0 mg/kg/injection, schedule: Q01DX009 (ip), vehicle: Klucel (hydroxypropylcellulose) (HPC) 101 % of control | dose: 32.0 mg/kg/injection, schedule: Q01DX009 (ip), vehicle: Klucel (hydroxypropylcellulose) (HPC) 97 % of control | dose: 64.0 mg/kg/injection, schedule: Q01DX009 (ip), vehicle: Klucel (hydroxypropylcellulose) (HPC) 87 % of control

CCOC(=O)C(=CNc1ccc2c(c1)OCO2)C(=O)OCC
inactive: dose: 50.0 mg/kg/injection, schedule: Q01DX005 (ip), vehicle: distilled water + Tween-80 + alcohol 100 % of control | dose: 100.0 mg/kg/injection, schedule: Q01DX005 (ip), vehicle: distilled water + Tween-80 + alcohol 95 % of control | dose: 200.0 mg/kg/injection, schedule: Q01DX005 (ip), vehicle: distilled water + Tween-80 + alcohol 102 % of control

Cc1cc(C)cc(C(=O)NCc2ccc[n+]([O-])c2)c1
inactive: [15] 97 % of control | [16] 94 % of control

O=C(O)COc1ccccc1P(=O)(c1ccccc1)c1ccccc1
inactive: [3] 101 % of control | [4] 102 % of control | [5] 103 % of control

O=C(O)CC(CC(=O)N(CCP(c1ccccc1)c1ccccc1)CCP(c1ccccc1)c1ccccc1)C(=O)O (stereo unspecified) (tested in a mixture with another compound)
inactive: [10] 111 % of control | [11] 111 % of control | dose: 100.0 mg/kg/injection, schedule: Q04DX003 (ip), vehicle: Klucel (hydroxypropylcellulose) (HPC) 99 % of control | [12] 112 % of control | dose: 200.0 mg/kg/injection, schedule: Q04DX003 (ip), vehicle: Klucel (hydroxypropylcellulose) (HPC) 101 % of control | dose: 400.0 mg/kg/injection, schedule: Q04DX003 (ip), vehicle: Klucel (hydroxypropylcellulose) (HPC) 97 % of control

COc1ccc2c(c1)C=C([N+](=O)[O-])C(N1CCOCC1)O2 (stereo unspecified)
inactive: [13] 106 % of control | [14] 108 % of control | [3] 101 % of control and 109 % of control

C=CCSc1cccc2ccccc12
inactive: [6] 100 % of control | [7] 109 % of control

— PubChem BioAssay AID330 (DTP/NCI, 2004)
